≈ marks a conversion by molar mass, not a printed value. Like-named read-outs stand apart in the source and are kept apart here.
What was measured:
Solubility (Test E) = type: physicochemical
[1] = Solubility (Test F), McIlvaine buffer pH 6.5; type: physicochemical; details: McIlvaine buffer pH 6.5, 25° C., 24 to 72 h, theoretical maximum 200 μM; for solubility: disodium hydrogenphosphate-citric acid (McIlvaine) buffer, 25 °C, pH 6.5, aqueous buffer, thermodynamic from solid
Human NLRP3 [2] = target: T1, Human NLRP3 (Homo sapiens (Human), UniProt Q96P20); experiment: Human NLRP3 speck formation assay (Test A), nigericin triggered ASC-speck formation in ASC-GFP reporter monocytes
T1 sequence (Q96P20 whole entry): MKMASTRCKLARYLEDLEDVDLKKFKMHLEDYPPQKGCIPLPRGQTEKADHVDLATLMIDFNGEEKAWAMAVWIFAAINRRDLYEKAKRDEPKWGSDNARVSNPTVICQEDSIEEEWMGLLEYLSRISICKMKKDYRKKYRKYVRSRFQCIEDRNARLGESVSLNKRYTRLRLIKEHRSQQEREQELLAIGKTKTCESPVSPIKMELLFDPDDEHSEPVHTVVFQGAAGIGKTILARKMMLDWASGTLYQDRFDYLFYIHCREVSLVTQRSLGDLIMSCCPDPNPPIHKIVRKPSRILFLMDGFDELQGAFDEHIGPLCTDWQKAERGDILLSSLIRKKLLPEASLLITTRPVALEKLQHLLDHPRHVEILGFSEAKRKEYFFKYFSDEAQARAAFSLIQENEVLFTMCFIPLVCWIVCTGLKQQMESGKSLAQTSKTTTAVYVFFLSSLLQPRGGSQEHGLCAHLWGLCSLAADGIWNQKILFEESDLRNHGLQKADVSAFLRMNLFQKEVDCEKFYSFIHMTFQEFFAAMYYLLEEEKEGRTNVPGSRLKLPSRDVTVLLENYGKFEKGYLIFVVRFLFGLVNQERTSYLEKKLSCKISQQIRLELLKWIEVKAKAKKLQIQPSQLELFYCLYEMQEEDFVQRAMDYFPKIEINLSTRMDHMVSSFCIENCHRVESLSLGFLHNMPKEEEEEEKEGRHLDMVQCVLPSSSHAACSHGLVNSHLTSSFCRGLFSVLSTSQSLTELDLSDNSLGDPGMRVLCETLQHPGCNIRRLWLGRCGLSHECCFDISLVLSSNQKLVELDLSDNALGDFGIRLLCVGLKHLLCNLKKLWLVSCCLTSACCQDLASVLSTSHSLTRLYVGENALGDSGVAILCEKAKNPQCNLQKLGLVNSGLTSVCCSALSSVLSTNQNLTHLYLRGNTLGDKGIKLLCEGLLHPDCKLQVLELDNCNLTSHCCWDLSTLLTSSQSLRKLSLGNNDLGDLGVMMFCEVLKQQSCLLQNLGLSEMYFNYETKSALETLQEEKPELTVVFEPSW

Human NLRP3 [3] = target: T1, Human NLRP3
Human NLRP3 [4] = target: T1, Human NLRP3; remark: listed apart in the source
hERG = hERG (Homo sapiens (Human), UniProt Q12809); experiment: hERG assay (Test D), SyncroPatch 384PE patch clamp, hERG-expressing CHO cells; type: cell-based; details: rt
Chain of hERG (Q12809 whole entry): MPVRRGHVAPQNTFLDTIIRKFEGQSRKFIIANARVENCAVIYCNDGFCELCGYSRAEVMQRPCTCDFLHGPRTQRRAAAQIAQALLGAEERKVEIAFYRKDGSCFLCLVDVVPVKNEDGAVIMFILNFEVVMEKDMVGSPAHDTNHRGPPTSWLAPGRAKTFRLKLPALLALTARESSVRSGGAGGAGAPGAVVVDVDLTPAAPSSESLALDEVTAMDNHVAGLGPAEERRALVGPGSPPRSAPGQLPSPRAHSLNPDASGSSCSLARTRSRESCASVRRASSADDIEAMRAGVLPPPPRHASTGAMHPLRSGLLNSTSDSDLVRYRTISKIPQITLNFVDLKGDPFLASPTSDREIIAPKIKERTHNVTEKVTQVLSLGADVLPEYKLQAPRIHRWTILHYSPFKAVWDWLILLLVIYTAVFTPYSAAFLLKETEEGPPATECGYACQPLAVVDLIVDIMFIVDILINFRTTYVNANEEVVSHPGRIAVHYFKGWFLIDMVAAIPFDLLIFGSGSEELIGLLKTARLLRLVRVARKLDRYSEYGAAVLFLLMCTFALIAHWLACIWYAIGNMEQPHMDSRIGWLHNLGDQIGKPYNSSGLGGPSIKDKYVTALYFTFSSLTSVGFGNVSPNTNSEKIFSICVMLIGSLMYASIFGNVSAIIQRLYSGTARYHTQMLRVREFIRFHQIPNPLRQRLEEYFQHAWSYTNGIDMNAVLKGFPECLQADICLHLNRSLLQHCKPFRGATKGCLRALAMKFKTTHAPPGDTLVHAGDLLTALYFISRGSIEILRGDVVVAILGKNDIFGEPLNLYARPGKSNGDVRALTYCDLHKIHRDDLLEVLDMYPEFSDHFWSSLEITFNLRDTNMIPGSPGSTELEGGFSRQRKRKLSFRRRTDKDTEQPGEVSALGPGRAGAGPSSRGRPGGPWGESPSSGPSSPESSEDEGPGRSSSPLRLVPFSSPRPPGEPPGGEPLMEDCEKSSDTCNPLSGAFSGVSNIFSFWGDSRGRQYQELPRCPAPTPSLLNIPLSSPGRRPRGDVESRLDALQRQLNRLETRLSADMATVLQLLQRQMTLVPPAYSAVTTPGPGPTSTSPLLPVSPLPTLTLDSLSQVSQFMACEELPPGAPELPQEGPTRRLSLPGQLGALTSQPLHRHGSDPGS

[5] = Test C IC50, IL-1β release, THP-1 cells, LPS 2 μg/mL 24 h, BzATP 1 mM

SMILES | solubility (Solubility (Test E)) | solubility [1] | EC50 (Human NLRP3 [2]) | IC50 (Human NLRP3 [3]; [5]) | Test F Solubility [1] | IC50 (Human NLRP3 [4]) | IC50 (hERG) | IC50 (Human NLRP3 [3])
Oc1cc(C(F)(F)F)ccc1-c1nnc(N[C@@H]2CCCCC[C@H]2O)c2ccccc12 (racemic) [Example 27, rac-(1R,2R)-2-[[4-[2-hydroxy-4-(trifluoromethyl)phenyl]phthalazin-1-yl]amino]cycloheptanol] | 9 µM (≈ 3.76 µg/mL) | 2.1 µg/mL (≈ 5.03 µM) | 562 nM | 34 nM | – | – | – | –
Oc1cc(C(F)(F)F)ccc1-c1nnc(N[C@H]2CC[C@@H](O)C2)c2ccccc12 (single isomer, unassigned) [Example 35] | – | – | 212 nM | 69 nM | 10.9 µg/mL | 71 nM | – | –
OC[C@@H](O)CNc1nnc(-c2ccc(Cl)cc2O)c2ccccc12 [Example 5, (2S)-3-[[4-(4-chloro-2-hydroxy-phenyl)phthalazin-1-yl]amino]propane-1,2-diol] | 6 µM (≈ 2.07 µg/mL) | 7.9 µg/mL (≈ 22.8 µM) | 122 nM | 17 nM | – | 45 nM | – | –
OC[C@@H](O)CNc1nnc(-c2ccc(OC(F)(F)F)cc2O)c2ccccc12 [Example 6, (2S)-3-[[4-[2-hydroxy-4-(trifluoromethoxy)phenyl]phthalazin-1-yl]amino]propane-1,2-diol] | 130 µM (≈ 51.4 µg/mL) | > 79.1 µg/mL | 201 nM | 40 nM | – | 99 nM | – | –
Cc1ccc(-c2nnc(NC[C@H](O)CO)c3ccccc23)c(O)c1 [Example 11, (2S)-3-[[4-(2-hydroxy-4-methyl-phenyl)phthalazin-1-yl]amino]propane-1,2-diol] | > 1000 µM | > 65.1 µg/mL | 207 nM | 23 nM | – | 82 nM | – | –
Cc1ccc2c(NC[C@H](O)CO)nnc(-c3ccc(C(F)(F)F)cc3O)c2c1 [Example 15, (2S)-3-[[4-[2-hydroxy-4-(trifluoromethyl)phenyl]-6-methyl-phthalazin-1-yl]amino]propane-1,2-diol] | 155 µM (≈ 61 µg/mL) | 14.7 µg/mL (≈ 37.4 µM) | 220 nM | 26 nM | – | – | – | –
Oc1cc(C(F)(F)F)ccc1-c1nnc(N[C@H]2CC[C@H](O)C2)c2ccccc12 [Example 17, 2-[4-[[(1S,3S)-3-hydroxycyclopentyl]amino]phthalazin-1-yl]-5-(trifluoromethyl)phenol] | – | 27.5 µg/mL (≈ 70.6 µM) | 290 nM | 86 nM | – | 169 nM | – | –
Oc1cc(C(F)(F)F)ccc1-c1nnc(N[C@@H]2CCC[C@H]2O)c2ccccc12 [Example 20, 2-[4-[[(1R,2R)-2-hydroxycyclopentyl]amino]phthalazin-1-yl]-5-(trifluoromethyl)phenol] | 206 µM (≈ 80.2 µg/mL) | 8.6 µg/mL (≈ 22.1 µM) | 162 nM | 10 nM | – | 46 nM | – | –
Oc1cc(C(F)(F)F)ccc1-c1nnc(N[C@H]2CCC[C@@H]2O)c2ccccc12 [Example 22, 2-[4-[[(1S,2S)-2-hydroxycyclopentyl]amino]phthalazin-1-yl]-5-(trifluoromethyl)phenol] | 172 µM (≈ 67 µg/mL) | 9.2 µg/mL (≈ 23.6 µM) | 2410 nM | 187 nM | – | – | – | –
Oc1cc(C(F)(F)F)ccc1-c1nnc(N[C@H]2CCCC[C@@H]2O)c2ccccc12 [Example 26, 2-[4-[[(1S,2S)-2-hydroxycyclohexyl]amino]phthalazin-1-yl]-5-(trifluoromethyl)phenol] | 148 µM (≈ 59.7 µg/mL) | 8.3 µg/mL (≈ 20.6 µM) | 1980 nM | 602 nM | – | – | – | –
Oc1cc(C(F)(F)F)ccc1-c1nnc(N[C@H]2C[C@H](O)C2)c2ccccc12 [Example 32, 2-(4-(((1r,3r)-3-hydroxycyclobutyl)amino)phthalazin-1-yl)-5-(trifluoromethyl)phenol] | – | 1.4 µg/mL (≈ 3.73 µM) | 248 nM | 63 nM | – | 141 nM | – | –
Oc1cc(C(F)(F)F)ccc1-c1nnc(N[C@H]2C[C@@H](O)C2)c2ccccc12 [Example 33, 2-(4-(((1s,3s)-3-hydroxycyclobutyl)amino)phthalazin-1-yl)-5-(trifluoromethyl)phenol] | – | 2.6 µg/mL (≈ 6.93 µM) | 206 nM | 46 nM | – | 122 nM | – | –
Oc1cc(Cl)ccc1-c1nnc(N[C@@H]2CCC[C@H](O)C2)c2cnccc12 [Example 44, 5-chloro-2-[4-[[(1R,3S)-3-hydroxycyclohexyl]amino]pyrido[3,4-d]pyridazin-1-yl]phenol] | 636 µM (≈ 236 µg/mL) | 40.1 µg/mL (≈ 108 µM) | 16 nM | < 3 nM | – | – | > 40 µM | –
Oc1cc(C2CC2)ccc1-c1nnc(N[C@@H]2CCC[C@H](O)C2)c2cnccc12 [Example 52, 5-cyclopropyl-2-[4-[[(1R,3S)-3-hydroxycyclohexyl]amino]pyrido[3,4-d]pyridazin-1-yl]phenol] | 447 µM (≈ 168 µg/mL) | 51.9 µg/mL (≈ 138 µM) | 52 nM | 6 nM | – | – | 22 µM | –
Oc1cc(Cl)ccc1-c1nnc(N[C@@H]2CCCC[C@H]2O)c2cnccc12 [Example 58, 5-chloro-2-[4-[[(1R,2R)-2-hydroxycyclohexyl]amino]pyrido[3,4-d]pyridazin-1-yl]phenol] | – | 42.4 µg/mL (≈ 114 µM) | 11 nM | 2 nM | – | – | > 40 µM | –
C[C@]1(O)C[C@@H](Nc2nnc(-c3ccc(Cl)c(F)c3O)c3ccncc23)C1 [Example 65, 3-chloro-2-fluoro-6-(4-(((1s,3s)-3-hydroxy-3-methylcyclobutyl)amino)pyrido[3,4-d]pyridazin-1-yl)phenol] | 11 µM (≈ 4.12 µg/mL) | 1.1 µg/mL (≈ 2.93 µM) | 373 nM | – | – | 114 nM | – | 37 nM
C[C@]1(O)C[C@@H](Nc2nnc(-c3c(O)cc(C(F)(F)F)cc3F)c3ccncc23)C1 [Example 67, 3-fluoro-2-(4-(((1s,3s)-3-hydroxy-3-methylcyclobutyl)amino)pyrido[3,4-d]pyridazin-1-yl)-5-(trifluoromethyl)phenol] | 3 µM (≈ 1.23 µg/mL) | 1.5 µg/mL (≈ 3.67 µM) | 67 nM | – | – | 24 nM | – | 8 nM
C[C@]1(O)C[C@@H](Nc2nnc(-c3ccc(Cl)cc3O)c3ccncc23)C1 [Example 68, 5-chloro-2-(4-(((1s,3s)-3-hydroxy-3-methylcyclobutyl)amino)pyrido[3,4-d]pyridazin-1-yl)phenol] | 44 µM (≈ 15.7 µg/mL) | – | 19 nM | – | – | – | – | 2 nM
C[C@]1(O)C[C@@H](Nc2nnc(-c3c(O)cc(F)cc3F)c3ccncc23)C1 [Example 69, 3,5-difluoro-2-(4-(((1s,3s)-3-hydroxy-3-methylcyclobutyl)amino)pyrido[3,4-d]pyridazin-1-yl)phenol] | 29 µM (≈ 10.4 µg/mL) | 13.6 µg/mL (≈ 38 µM) | 301 nM | – | – | 149 nM | – | 38 nM
CC(C)(O)CNc1nnc(-c2c(O)cc(Cl)cc2F)c2ccncc12 [Example 73, 5-chloro-3-fluoro-2-[4-[(2-hydroxy-2-methyl-propyl)amino]pyrido[3,4-d]pyridazin-1-yl]phenol] | – | 14.1 µg/mL (≈ 38.9 µM) | 142 nM | 15 nM | – | – | > 40 µM | –
Oc1cccc(F)c1-c1nnc(N[C@@H]2CCCC[C@H]2O)c2cnccc12 [Example 76, 3-fluoro-2-(4-(((1R,2R)-2-hydroxycyclohexyl)amino)pyrido[3,4-d]pyridazin-1-yl)phenol] | – | – | 128 nM | – | – | – | > 40 µM | –
Oc1cccc(F)c1-c1nnc(N[C@@H]2CCCC[C@H]2O)c2ccncc12 [Example 77, 3-fluoro-2-(1-(((1R,2R)-2-hydroxycyclohexyl)amino)pyrido[3,4-d]pyridazin-4-yl)phenol] | – | – | 2930 nM | – | – | – | – | –
Oc1cc(F)ccc1-c1nnc(N[C@@H]2CCCC[C@H]2O)c2ccncc12 [Example 78, 5-fluoro-2-(1-(((1R,2R)-2-hydroxycyclohexyl)amino)pyrido[3,4-d]pyridazin-4-yl)phenol] | 958 µM (≈ 340 µg/mL) | – | 1140 nM | – | – | – | – | –
Oc1cc(C(F)(F)F)ccc1-c1nnc(N[C@H]2CCC[C@@H](O)C2)c2cnccc12 [Example 82, 2-[4-[[(1S,3R)-3-hydroxycyclohexyl]amino]pyrido[3,4-d]pyridazin-1-yl]-5-(trifluoromethyl)phenol] | 34 µM (≈ 13.7 µg/mL) | 9.4 µg/mL (≈ 23.2 µM) | – | – | – | – | – | –
C[C@]1(O)C[C@H](Nc2nnc(-c3ccc(C(F)(F)F)cc3O)c3ccncc23)C1 [Example 84, 2-(4-(((1r,3r)-3-hydroxy-3-methylcyclobutyl)amino)pyrido[3,4-d]pyridazin-1-yl)-5-(trifluoromethyl)phenol] | 20 µM (≈ 7.81 µg/mL) | > 78.1 µg/mL | 88 nM | 27 nM | – | – | – | –
Oc1cc(F)ccc1-c1nnc(N[C@@H]2CC[C@@H](O)C2)c2cnccc12 [Example 85, 5-fluoro-2-(4-(((1R,3R)-3-hydroxycyclopentyl)amino)pyrido[3,4-d]pyridazin-1-yl)phenol] | 68 µM (≈ 23.1 µg/mL) | – | 481 nM | – | – | – | – | –
Oc1cccc(F)c1-c1nnc(N[C@@H]2CC[C@@H](O)C2)c2ccncc12 [Example 86, 3-fluoro-2-(1-(((1R,3R)-3-hydroxycyclopentyl)amino)pyrido[3,4-d]pyridazin-4-yl)phenol] | – | – | 6150 nM | – | – | – | – | –
Oc1cccc(F)c1-c1nnc(N[C@@H]2CC[C@H](O)C2)c2ccncc12 [Example 87, 3-fluoro-2-(1-(((1R,3S)-3-hydroxycyclopentyl)amino)pyrido[3,4-d]pyridazin-4-yl)phenol] | 25 µM (≈ 8.51 µg/mL) | – | 6150 nM | – | – | – | – | –

From patent publication US11970463B2, “Compounds and their use” (ASTRAZENECA AB, priority 2021, dated 2024)
